From PubChem BioAssay (NCI) come the findings set out here.

Structures are written as SMILES. Where “and” joins values, the source holds several entries; their conditions need not be identical. Equal entries are not always repeated.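 Cultured in 96-well plates, cells were exposed to test compound for 48 hours across five concentrations. Here, GI50 denotes the concentration required for 50% inhibition of growth. At the TGI there is no net growth.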

Assay in all cases: NCI tumour cell line growth inhibition, 48 h
Experiment [1] has as its system HOP-18 NSCLC.
In experiment [2] the test system is KM20L2 colon.
The subject of experiment [3] is RXF-631 renal.
Experiment [4] deals with SNB-78 CNS.
Experiment [5] relates to XF 498 CNS.
The test system of experiment [6] is DMS 273 small cell lung.
In experiment [7] the test system is MCF7 breast.
In experiment [8] the test system is MDA-MB-231 breast.
Experiment [9] has as its system MDA-N.
Experiment [10] concerns P388/ADR leukemia.
The test system of experiment [11] is SN12K1 renal.

Consider `O=C1C2C3C=C4c5ccccc5N(c5ccccc5)C4(C2C(=O)N1c1ccccc1)C1C(=O)N(c2ccccc2)C(=O)C31` (stereo unspecified), for which the TGI in experiment [1], in [2], in experiment [3], in experiment [4] and in experiment [5] was greater than 100 µM in each case.
Take `O=C1C[C@H]2CCCN2[C@@H](c2ccccc2)C1`: the TGI in experiment [6], in [1], in experiment [2], in [3], in experiment [4] and in experiment [5] was greater than 100 µM in each case.
In the case of `Cc1cc2c(C)nn(Cc3ccccc3)c2c(C(=O)O)c1C`, the TGI in [6], in [1], in experiment [2], in experiment [3], in experiment [4] and in experiment [5] was greater than 100 µM throughout.
`Cc1ccc(S(=O)(=O)SC/C=C\CSS(=O)(=O)c2ccc(C)cc2)cc1`: the GI50 in experiment [6] is 3.92 µM and 18.3 µM; in experiment [1] it was > 100 µM and 35.6 µM. Besides, the TGI in experiment [6] was > 43.7 µM and 35.3 µM; in experiment [1] it was > 100 µM and 82.5 µM; in [2] it was > 88.5 µM and 49.1 µM; in [7], greater than 77.2 µM; in [8], greater than 31.6 µM; in [9], greater than 31.6 µM. Besides, the TGI was > 100 µM and 89.5 µM in experiment [4]; > 100 µM and 43.9 µM in experiment [5].
With `O=C(NCCCOC(=O)CCCCCCCCC(=O)OCCCNC(=O)NC(=O)c1c[nH]c(=O)[nH]c1=O)NC(=O)c1c[nH]c(=O)[nH]c1=O`, the TGI in experiment [6], in experiment [1], in [2], in experiment [3], in experiment [4] and in experiment [5] was greater than 100 µM throughout.
Regarding `O=c1cc(-c2cccs2)[nH]c2cc3c(cc12)OCO3`, the TGI in experiment [6] is greater than 100 µM; in experiment [1], greater than 100 µM; in experiment [2] it was 41.3 µM; in experiment [3], greater than 100 µM; in experiment [4], greater than 100 µM; in [5] it was 15.3 µM.
As to `O=C1Nc2ccccc2C1(O)C/C(=N/O)c1ccc2ccccc2c1` (stereo unspecified), the TGI in experiment [1], in experiment [2], in experiment [3], in experiment [4] and in [5] was greater than 100 µM throughout.
For the molecule `CC1=C(C(=O)Nc2ccccc2C)C(c2ccc(Cl)cc2)C(C(=O)Nc2ccccc2C)=C(C)N1`, the TGI in experiment [1], in [3], in experiment [4] and in experiment [5] was greater than 100 µM each time.
As to `Cn1c(=O)c(N=Nc2c(=O)n(C)c(=O)n3c2[nH]c2ccccc23)c2[nH]c3ccccc3n2c1=O`, the TGI in experiment [6], in experiment [1], in experiment [2], in [3], in experiment [4] and in [5] was greater than 100 µM throughout.
Take `COC(=O)/C(=N\NC(C)(C)C)C(C(=O)OC)C(=O)C(=O)Nc1cc(Cl)ccc1Cl` (stereo unspecified): the TGI in [6], in [1], in [2], in [3], in experiment [4] and in [5] was greater than 100 µM throughout.
As for `CCOC(=O)Cc1nc2ccc3c(c2[nH]c1=O)C(=O)c1ccccc1C3=O`, the TGI is greater than 100 µM in experiment [6]; 91.6 µM in [1]; greater than 100 µM in experiment [2]; greater than 100 µM in experiment [3]; greater than 100 µM in [4]; greater than 100 µM in experiment [5].
In the case of `CC[O-].CC[O-].O=C([CH-]C(=O)c1ccccc1)CCCCCCCCC(=O)[CH-]C(=O)c1ccccc1.[Ti+4]`, the GI50 in experiment [6], in experiment [2], in experiment [3], in experiment [4] and in experiment [5] was greater than 100 µM in each case. The TGI in [6], in experiment [2], in [3], in [4] and in experiment [5] was greater than 100 µM each time.
For `Cc1nc(C(N)=O)c(N)n1CCN1CCN(C(=O)CCCCCCCCCCNC2N=CNc3nc[nH]c32)CC1` (stereo unspecified), the TGI in [1], in experiment [2], in experiment [3] and in experiment [4] was greater than 100 µM throughout.
As for `CCc1cccc(C)c1NS(=O)(=O)c1ccccc1`, the TGI in [6], in experiment [2], in experiment [3], in experiment [4] and in [5] was greater than 100 µM each time.
In the case of `c1cc[c]([Sn][c]2ccccc2)cc1`, the GI50 was 16.8 µM in experiment [6]; 21.6 µM in experiment [1]; 13.4 µM in [2]; 35.6 µM in experiment [3]; 39.8 µM in [4]; 13.3 µM in [5]. Further, the TGI is 35.9 µM in experiment [6]; 48.8 µM in [1]; 18.8 µM in experiment [2]; greater than 100 µM in experiment [3]; greater than 100 µM in [4]; 17.9 µM in [5].
In the case of `CCOC(=O)NC(=O)c1cn(CCN2CCN(C(=O)NCCCCCCNC(=O)N3CCN(CCn4cc(C(=O)NC(=O)OCC)c(=O)[nH]c4=O)CC3)CC2)c(=O)[nH]c1=O`, the TGI in [6], in [1], in [2], in experiment [3], in experiment [4] and in experiment [5] was greater than 100 µM each time.
As for `O=C(N/N=C/c1ccccc1O)N/N=C/c1ccccc1O`, the TGI in experiment [6], in experiment [1], in [2], in experiment [3], in [4] and in [5] was greater than 100 µM throughout.
Consider `COC(=O)c1sc(C(=O)OC)c2c1CS(=O)C2`, for which the TGI in experiment [6], in experiment [1], in experiment [2], in experiment [3], in experiment [4] and in [5] was greater than 100 µM each time.
For `CC1CC(C)CC(C)C(O)/C(C#N)=C/C=C/CC(C2CCCC2C(=O)O)OC(=O)CC(O)C(C)C1` (stereo unspecified), the TGI in [6] came out at 0.11 µM; in [1], 0.0612 µM; in experiment [2], 1.43 µM; in experiment [7], 0.0436 µM; in [8], 0.0706 µM; in experiment [9], 0.0646 µM. For the same molecule, the TGI in [10] was less than 0.0143 µM; in experiment [3], 0.254 µM; in experiment [11] it was less than 0.0223 µM; in experiment [4], 0.13 µM; in experiment [5] it was less than 0.0264 µM. Besides, the GI50 in [7] was 0.00614 µM; in experiment [8], 0.0193 µM; in experiment [9], 0.0188 µM.
With `CCc1c(C#N)c(=O)[nH]c(=O)n1CCN1CCN(C(=O)NCCCCCCNC(=O)N2CCN(CCn3c(CC)c(C#N)c(=O)[nH]c3=O)CC2)CC1`, the TGI in [6], in experiment [1], in experiment [2], in experiment [3], in experiment [4] and in [5] was greater than 100 µM throughout.
For `N#CC(N)=Nc1ccccc1`, the TGI in experiment [6], in experiment [1], in experiment [2] and in experiment [3] was greater than 100 µM throughout.
Take `Cn1c(=O)nc2n(-c3ccc(O)cc3)c3ccccc3nc-2c1=O`: the TGI in experiment [6], in [1], in [2], in experiment [3], in experiment [4] and in experiment [5] was greater than 100 µM each time.
With `O=C1CC(CC(=O)C2CCCCC2=O)C(=O)N1` (stereo unspecified), the TGI in experiment [6], in experiment [1], in experiment [2], in [4] and in [5] was greater than 100 µM in each case.
For the molecule `CN1N=CSC12C(=O)N(c1ccccc1)C(=O)N2c1ccccc1` (stereo unspecified), the TGI was greater than 100 µM in [6]; 9.62 µM in [1]; greater than 100 µM in [2]; greater than 100 µM in experiment [3]; greater than 100 µM in experiment [4]; greater than 100 µM in [5].
For `Cc1c(OC(C)C(=O)O)ccc2c(-c3ccccc3)cc(=O)oc12` (stereo unspecified), the TGI in experiment [1], in experiment [2], in experiment [3], in experiment [4] and in experiment [5] was greater than 100 µM each time.
